# Test results published in patent US8008540B2, “Transgenic non-human animal for use in research models for studying Parkinson's disease” (Kampavata AB, priority 2004, dated 2011).
# “Also recorded” adds a separate entry of the source.
# Test system: homozygous knockout mice (+/DAT-cre; Tfam^loxP/Tfam^loxP)
# Test: L-DOPA treatment, open field activity cages (locomotion and rearing)
# Format: in vivo, mouse
# Protocol: Open field activity was examined in automated activity cages. This consisted of Plexiglas boxes (35×35×18 cm) with a lower and a higher row of infrared sensitive photocells and a microcomputer registering interruption of photocell beams. Animals were tested during the light phase of the light-dark cycle, between 9:00 and 13:00 h. Locomotor activity was registered when animals interrupted the lower row of photocells and rearing was registered when the higher row was interrupted. Animals were individually placed gently in the open field arena and remained there during 60 min. Locomotion and rearing counts were registered every 10 min. For the L-DOPA treatment, spontaneous locomotion and rearing were measured in activity cages as above. Animals were then given i.p. injections of L-DOPA combined with the peripheral dopa decarboxylase inhibitor benzerazide (Madopark 20 mg/kg in PBS; Roche) or PBS and were then immediately put back into the activity cages for another 60 minutes of recording. The scoring of counts was given as mean+/−SEM. Statistical significance was tested using 2-way ANOVA analysis. The open field box was cleaned with 70% alcohol after each test.
# [1] = 20 and 30 week old homozygous knockout mice, L-DOPA 20 mg/kg i.p. vs saline, 60 min recording
smiles,measurement,setting,value
N[C@@H](Cc1ccc(O)c(O)c1)C(=O)O [L-DOPA],motor performance,20 and 30 week old homozygous knockout mice,improved motor performance
same,locomotion,[1],increased locomotion
same,rearing,[1],increase in rearing was similar; also recorded: increase of rearing
same,progressive movement disorder,"Parkinson mouse model, L-DOPA treatment",partially reversed
same,"locomotor response, course over time",older (30 week old) homozygous knockout mice,abruptly terminated
same,"locomotion response, younger vs older mice","younger (20 week old) homozygous knockout mice, identical L-DOPA dose",more pronounced and longer lasting locomotion response; also recorded: greater locomotion response
